By ΔTm is commonly meant the change in melting temperature against a reference sample.

Assay [1] concerns T1 (DNA, G4) GGGTTGGGTTGGGTTGGG
As to the kind of experiment: X-ray crystallography, 2.39 Å. The following applies: 20 mM K+; annealed in 10 mM lithium cacodylate pH 7.2; 5'-5' GQ dimer, NMM on 3' G-quartet.

Assay [2] has as its system T7 (DNA, G4) TGGGTTGGGTTGGGTTGGGT
Kind of assay: X-ray crystallography, 2.34 Å. The following applies: 20 mM K+; annealed in 10 mM lithium cacodylate pH 7.2; 5'-5' GQ dimer, NMM on 3' G-quartet.

The test system is the same in assay [3]. Kind of assay: UV-vis titration, SVD, direct fit. To be noted: 5 mM K+, 95 mM Li+; 10 mM lithium cacodylate pH 7.2; 4.3 μM NMM titrated with DNA.
The subject of assay [4] is T1 (DNA, G4) GGGTTGGGTTGGGTTGGG
Kind of assay: CD melting at 262 nm. The following applies: 5 mM K+, 95 mM Li+; 10 mM lithium cacodylate pH 7.2; ~5 μM DNA, 2 eq. NMM.

The subject of assay [5] is T7 (DNA, G4) TGGGTTGGGTTGGGTTGGGT
Kind of assay: CD melting at 262 nm. To be noted: 5 mM K+, 95 mM Li+; 10 mM lithium cacodylate pH 7.2; ~5 μM DNA, 2 eq. NMM.

For assay [6], the system named is T8 (DNA, G4) CGGGTTGGGTTGGGTTGGGG
As to the kind of experiment: CD melting at 262 nm. The following applies: 5 mM K+, 95 mM Li+; 10 mM lithium cacodylate pH 7.2; ~5 μM DNA, 2 eq. NMM.

As for `CCc1c(C)c2cc3nc(cc4nc(cc5c(CC)c(C)c(cc1[nH]2)n5C)C(C)=C4CCC(=O)O)C(CCC(=O)O)=C3C`, the binding result in assay [1] and in assay [2] was “yes” in each case. For the same compound, the Ka in assay [3] stood at 18 ± 7 µM⁻¹. Besides, the values for the ΔTm in assay [4], in assay [5] and in assay [6] were 20. ± 1 °C, 19.9 ± 0.4 °C and 17.0 ± 0.5 °C, respectively.

Source of the values: publication PMC7673559 (2020).
